The record followed here is patent US20250163065A1, “PYRROLOTRIAZINONE COMPOUND, PHARMACEUTICAL COMPOSITION COMPRISING SAME, PREPARATION METHOD THEREFOR, AND USE THEREOF” (SHANGHAITECH UNIVERSITY, priority 2022, published 2025).

Molecules are shown by their SMILES. Like-named read-outs stand apart in the source and are kept apart here.

Data set [1] is described as follows: Pharmacokinetics and brain distribution in mice after single intraperitoneal injection. Format: in vivo, male C57 mice. As to conditions: mouse, 10 mg/kg intraperitoneal; for half-life / Tmax / Cmax: C57, ip.
Data set [2] addresses GPR139 (Homo sapiens (Human), UniProt Q6DWJ6). The data set can be described thus: Agonistic activity on GPR139, calcium flux detection assay (FLIPR) in transfected CHO-K1 cells. Format: cell-based. Conditions: for EC50: calcium flux, CHO-K1 cells transfected with GPR139 plasmid, mean ± standard deviation; for Emax: CHO-K1. (A change in cytosolic calcium serves as a functional read-out for many receptors and channels.)

For data set [3], the system named is BALB/c mice. Kind of data set: Social interaction experiment in BALB/c mice (negative symptoms of schizophrenia). Format: in vivo. Conditions: for Social time: 10-minute period. An excerpt:
The experimental subjects were 6-week-old male BALB/c wild-type mice, weighing approximately 22 grams, purchased from Shanghai Lingchang Biotechnology Co., Ltd. They were housed in SPF-grade breeding facilities, with 2 mice per cage, under a 12-hour light/dark cycle, with free access to food and water. All behavioral experiments in this project were completed during the light cycle. The experiment adhered to all relevant regulations and guidelines for animal welfare and ethics, and was supervised and inspected by the ethics committee and laboratory animal managers.
The length, width, and height of the behavioral box used in this experiment were all 40 cm. During the experiment, 4 mice were tested in 4 behavioral boxes at the same time. In this experiment, Etho Vision XT was used for experimental setup and video recording.
The mice were 5 weeks old when purchased. After one week of observation, the experiment was started when they were 6 weeks old and weighed about 22 grams. Before each experiment, the experimental mice were restricted from eating 18 hours in advance. On the day of the experiment, the mice were transferred to the behavioral laboratory to familiarize themselves with the environment 1 hour in advance. Subsequently, they were administered by intraperitoneal injection, and each mouse was returned to its original cage after injection. After 20 minutes, the experimental mice were placed in the behavioral box to acclimate for 10 minutes. Then, a stimulus mouse (from the same batch of BALB/c) was placed in a corner of the behavioral box, away from the experimental mouse. The two mice were allowed to explore freely for 10 minutes while their activity was monitored and recorded by a camera, and the data was archived.
The experimental data were analyzed. The social interaction time (including approaching, sniffing, grooming, chasing, attacking, etc.) was calculated for each experimental mouse over a 10-minute period, and the total social time of each mouse across different groups was analyzed by one-way analysis of variance.

The mark [4] stands for this setting: male, brain tissue, mean n=3, read-out: T1/2 Brain (converted).
Where [5] appears, read: male, brain tissue, mean n=3, read-out: tmax Brain.
The mark [6] stands for this setting: male, plasma, mean n=3, read-out: T1/2 Plasma (converted).
[7] abbreviates: male, plasma, mean n=3, read-out: tmax Plasma.

GPR139, sequence (Q6DWJ6 whole entry, species assumed): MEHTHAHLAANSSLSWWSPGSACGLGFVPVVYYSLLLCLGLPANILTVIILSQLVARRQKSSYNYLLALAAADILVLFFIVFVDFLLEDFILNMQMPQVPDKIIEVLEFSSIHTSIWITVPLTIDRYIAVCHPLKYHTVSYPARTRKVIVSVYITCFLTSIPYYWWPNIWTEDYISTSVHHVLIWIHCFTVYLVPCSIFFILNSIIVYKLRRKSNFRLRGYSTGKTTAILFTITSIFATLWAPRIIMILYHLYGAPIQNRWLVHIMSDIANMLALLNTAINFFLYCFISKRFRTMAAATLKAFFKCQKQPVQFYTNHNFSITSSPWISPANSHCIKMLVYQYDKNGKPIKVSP

One may read the Tmax as the time at which the peak concentration occurs. Broadly, the Cmax is the maximum level reached in the sampled fluid or tissue. `C[C@H](NC(=O)Cn1ncc2cccn2c1=O)c1ccc(F)cc1` [Compound I-1]: the half-life in data set [1] (setting [4]) was 19.2 min; in data set [1] (setting [6]), 42 min. For the same compound, the Tmax in data set [1] (setting [5]) and in data set [1] (setting [7]) was 30 min in each case. Besides, in data set [1] (male, plasma, mean n=3), the Cmax is 700 ng/g. Moreover, the “Cmax Brain” value in data set [1] (brain tissue, mean n=3) came to 713 ng/g.
Usually EC50 stands for the concentration that produces a half-maximal response. Turning to `C[C@H](NC(=O)Cn1ncc2cccn2c1=O)c1ccccc1` [Compound I-4, (S)-2-(4-oxopyrrolo[1,2-d][1,2,4]triazin-3(4H)yl)-N-(1-phenylethyl)acetamide], in data set [2], the EC50 amounted to 111 ± 4 nM.
For `C[C@H](NC(=O)Cn1ncc2cccn2c1=O)c1ccc(OC(F)(F)F)cc1` [Compound I-5, (S)-2-(4-oxopyrrolo[1,2-d][1,2,4]triazin-3(4H)yl)-N-(1-(4-(trifluoromethoxy)phenyl)ethyl)acetamide], the “One-way analysis of variance (social time)” value in data set [3] (0.3 mg/kg intraperitoneal) and in data set [3] (1 mg/kg intraperitoneal) was “No difference” throughout. Also, the “Social time” value came to 107 ± 15 s in data set [3] (0.3 mg/kg intraperitoneal), 103 ± 17 s in data set [3] (1 mg/kg intraperitoneal) and 129 ± 12 s in data set [3] (3 mg/kg intraperitoneal). Besides, in data set [3] (dose of 3 mg/kg), the “Effect on social disorders in mice” value is recorded as “significant improvement effect”.
In the case of `Cc1ccc2cnn(CC(=O)N[C@@H](C)c3ccccc3)c(=O)n12` [Compound I-14, (S)-2-(6-methyl-4-oxopyrrolo[1,2-d][1,2,4]triazin-3(4H)yl)-N-(1-phenylethyl)acetamide], the EC50 in data set [2] was 13 ± 2 nM.
In the case of `Cc1ccc([C@H](C)NC(=O)Cn2ncc3c(C)cc(C)n3c2=O)cc1` [Compound I-18, (S)-2-(6,8-dimethyl-4-oxopyrrolo[1,2-d][1,2,4]triazin-3(4H)yl)-N-(1-(p-tolyl)ethyl)acetamide], the EC50 in data set [2] was found to be 93 ± 15 nM.
The same measure, in the same setting: the value for `Cc1cc(C)n2c(=O)n(CC(=O)N[C@@H](C)c3ccc(Cl)cc3)ncc12` [Compound I-22, (S)—N-1-(4-chlorophenyl)ethyl-2-(6,8-dimethyl-4-oxopyrrolo[1,2-d][1,2,4]triazin-3(4H)yl)acetamide] was 56 ± 11 nM.
`C[C@H](NC(=O)Cn1ncc2cccn2c1=O)c1ccc(C(F)(F)F)cc1` [Compound I-32, (S)-2-(4-oxopyrrolo[1,2-d][1,2,4]triazin-3(4H)yl)-N-(1-(4-(trifluoromethyl)phenyl)ethyl)acetamide]: the half-life in data set [1] (setting [4]) is 31.8 min; in data set [1] (setting [6]) it was 31.2 min. Also, the Tmax in data set [1] (setting [5]) and in data set [1] (setting [7]) was 30 min in each case. The Cmax in data set [1] (male, plasma, mean n=3) was found to be 868 ng/g. For the same compound, the “Cmax Brain” value in data set [1] (brain tissue, mean n=3) was found to be 1264 ng/g.
A word on the Emax: it is the greatest response seen or fitted, relative to the assay's reference. For `CC(C)[C@H](NC(=O)Cn1ncc2cccn2c1=O)c1ccc(F)cc1` [Compound I-37, (S)—N-(1-(4-fluorophenyl)-2-methylpropyl)-2-(4-oxopyrrolo[1,2-d][1,2,4]triazin-3(4H)yl)acetamide], in data set [2], the Emax was determined as 92% and the EC50 was 120 nM.
For `Cc1ccc2cnn(CC(=O)N[C@H](c3ccc(F)cc3)C(C)C)c(=O)n12` [Compound I-39, (S)—N-(1-(4-fluorophenyl)-2-methylpropyl)-2-(6-methyl-4-oxopyrrolo[1,2-d][1,2,4]triazin-3(4H)yl)acetamide], in that order: 94% and 26 nM.
For orientation: Kp means the ratio of the level in a tissue or fluid to that in plasma or blood. `C[C@H](NC(=O)Cn1nnc2ccccc2c1=O)c1ccc(OC(F)(F)F)cc1` [TAK-041, reference compound] showed a Kp in data set [1] (male, C57, brain and plasma, ip) of 0.892. In addition, the Tmax in data set [1] (setting [5]) came to 30 min; in data set [1] (setting [7]), 360 min. Further, in data set [1] (brain tissue, mean n=3), the “Cmax Brain” value came to 6754 ng/g. In addition, in data set [1] (brain tissue, mean n=3), the “T1/2 Brain” value is 108 h. Besides, the “Cmax Plasma” value in data set [1] (plasma, mean n=3) worked out at 7057 ng/g. For the same compound, the “Social time” value was 93 ± 26 s in data set [3] (1 mg/kg intraperitoneal) and 129 ± 28 s in data set [3] (3 mg/kg intraperitoneal).
